Test results published in US20210236605A1, “COMBINATIONS OF OSTEOPONTIN AND 2'-FUCOSYLLACTOSE FOR USE AS MEDICAMENTS” (HEALTH AND HAPPINESS (H&H) HONG KONG LIMITED, priority 2018, published 2021).

Legend:
[1] = system: cytokine mRNA expression in skin (TSLP, IL-4, IL-17, IFN-γ, T-bet, GATA3, ROR-γt); experiment: Quantitative RT-PCR of cytokine and transcription factor mRNA in dorsal skin of DNCB-treated mice; assay type: in vivo, BALB/c mice; settings: dorsal skin / skin lesions, ratio to GAPDH, vs saline-treated/control AD mice
Protocol: Total RNA was isolated from the dorsal skin of the control and treated BALB/c mice. Subsequently, cytokine mRNA expression in the skin sample was measured by RT-PCR.
Balb/c mice were purchased from the Animal Center of Southern Medical University (Guangzhou, China). The animals were maintained under a 12-h light/dark cycle in a specific pathogen-free animal facility at a controlled temperature (20-25° C.) and humidity (50±5%). All mice were fed with regular diet and autoclaved water. All animal experiments in this study were approved by the Welfare and Ethical Committee for Experimental Animal Care of Southern Medical University. […]
Total RNA was isolated from dorsal skin using TRIzol (TransGen Biotech, Beijing, China) according to manufacturer's instruction. 500 ng RNA was quantified for the reverse transcription reaction with TranScript All-in-One First-Strand cDNA Synthesis SuperMix (TransGen Biotech, Beijing, China) in a total volume of 10 μL. Quantitative real-time PCR (RT-PCR) analysis of gene expression was performed using TransStart Green qPCR SuperMix (TransGen Biotech, Beijing, China). […]
FIGS. 5 (a), (b) and (c): Relative mRNA expression levels of Th2-associated cytokines ((a) TSLP and (b) IL-4) and IL17a, as measured by RT-PCR and expressed as a ratio of GAPDH, extracted from BALB/c mice treated with DNCB in the presence and absence of OPN and/or 2FL. *p<0.05, **p<0.01. […]

[2] = system: DNCB-induced AD-like symptoms in BALB/c mice; experiment: Evaluation of AD score / AD-like symptoms in DNCB-induced BALB/c AD model; assay type: in vivo; settings: for severity of DNCB-induced AD-like symptoms: BALB/c mice, OPN 37.5 or 2.7 mg/kg(bw)/day, 2-FL 600 or 75 mg/kg(bw)/day, compared with saline-supplemented mice; for AD score (dermatitis score, AD-like symptoms): oral administration, DNCB-treated BALB/c mice, FIG. 1, combinations esp. trials 7 and 8 (high OPN)
Text: To investigate the potential therapeutic effect of OPN or 2-FL or an OPN/2FL combination on inflammation and emergence of atopic dermatitis (AD), BALB/c AD model was established by topical application of DNCB on each ear and the dorsal skin. Edema, excoriation, erythema, and scarring were apparent on the skin of DNCB sensitized mice after multiple challenged of DNCB. Strikingly, the severity of DNCB-induced AD-like symptoms in BALB/c mice was ameliorated upon supplementation with OPN (37.5 or 2.7 mg/kg(bw) day) and 2-FL (600 or 75 mg/kg(bw)·day) compared with saline-supplemented mice. Pruritus is an essential feature of AD. The scratching behaviour has already been established as an objective indicator to evaluate pruritus in animal model.
(§1) Balb/c mice were purchased from the Animal Center of Southern Medical University (Guangzhou, China). The animals were maintained under a 12-h light/dark cycle in a specific pathogen-free animal facility at a controlled temperature (20-25° C.) and humidity (50±5%). All mice were fed with regular diet and autoclaved water. All animal experiments in this study were approved by the Welfare and Ethical Committee for Experimental Animal Care of Southern Medical University. To induce AD-like symptom, dinitrochlorobenzene (DNCB) solution (dissolved in a 3:1 mixture of acetone and olive oil) was applied to the dorsal skin and ears of mice (female, 6-8 weeks old). One day after complete dorsal hair removal (approximately 4 cm^2), 150 μl of 2% DNCB solution was applied on the dorsal skin, and 10 μl each were applied to the back of both ears at day 1. Four days after sensitization, 0.5% DNCB dissolved in an acetone:olive oil mixture (3:1 vol/vol) is applied to challenge the dorsal skin (150 μl) and the back of both ears (10 μl each) once every two days, (days-27). OPN and 2-FL were dissolved in 0.9% normal saline. Mice treated with DNCB are intragastrically administered with 2-FL, OPN or 2-FL plus OPN from day 0 to day 27. The mice in the vehicle and another DNCB groups are given an equal volume of physiological saline.
The severity of dorsal skin lesions were assessed macroscopically according to the following four symptoms: edema, erythema/hemorrhage, excoriation/erosion, and scarring/dryness, and the sum of the individual scores (0, no symptoms; 1, mild; 2, moderate; 3, severe), ranging from 0 to 12, was defined as the final dermatitis scores. These visual assessments were performed every two day and by at least two independent investigators.
FIG. 1: OPN and 2-FL alleviation of AD-like symptoms induced—as per dermatitis score evaluation—by DNCB in BALB/c mice. […]

serum IgE = experiment: Determination of serum IgE levels (ELISA) in DNCB sensitized mice; assay type: in vivo; settings: day 27, DNCB-sensitized BALB/c mice (DNCB saline group 1025.02±82.68), FIG. 3; combination = high dose, trial 8
Protocol: as §1, with “Mice treated with DNCB are intragastrically administered with 2-FL, OPN or 2-FL plus OPN from day 0 to day 27. The mice in the vehicle and another DNCB groups are given an equal volume of physiological saline.” left out
Individual mouse serum was collected on the last day of the experiment. Serum levels of IgE were quantified using the commercial enzyme-linked immunosorbent assay (ELISA) kits (Invitrogen, San Diego, USA) according to the manufacturer's instructions. […]

[3] = system: scratching behaviour (pruritus) in DNCB-treated BALB/c mice; experiment: Assessment of scratching behaviour in DNCB-treated BALB/c mice; assay type: in vivo; settings: oral administration, FIG. 2, combination esp. trials 7 & 8
Protocol: as §1, with “OPN and 2-FL were dissolved in 0.9% normal saline. Mice treated with DNCB are intragastrically administered with 2-FL, OPN or 2-FL plus OPN from day 0 to day 27. The mice in the vehicle and another DNCB groups are given an equal volume of physiological saline.” left out
Mice were placed into cages for 1 h for habituation. After habituation, the number of scratching episodes for 15 min was counted macroscopically. A series of scratching movements made with the paw was counted as one scratching episode. The total scratching behaviour number was calculated within 15 min. […]

Row | Substance | IL-17 mRNA expression in skin [1] | severity of DNCB-induced AD-like symptoms [2] | AD score (dermatitis score, AD-like symptoms) [2] | serum IgE concentration (serum IgE) | scratching behaviour (number of scratching episodes for 15 min) [3]
1 | 2′-fucosyllactose [2-FL] | significantly lower | ameliorated | reduced substantially | 621.27 ± 46.79 µg/mL | reduced scratching behaviour
2 | osteopontin [OPN] | significantly lower | ameliorated | reduced substantially | 388.22 ± 61.28 µg/mL | reduced scratching behaviour
